{
  "source": "patent US10100008B2",
  "about": "“Immunostimulating agent” (AJINOMOTO CO., INC., priority 2014, dated 2018)",
  "key": {"[1]": {"tested_on": "anti OVA-specific IgG1 subclass antibody", "assay": "Adjuvant activity test: anti OVA-specific IgG1 subclass antibody in serum after subcutaneous immunization with OVA", "type": "in vivo, BALB/c mice", "conditions": "dorsal-subcutaneous", "procedure": "One week later, the secondary immunization was carried out by dorsal-subcutaneous administration of solutions similar to those of the above-mentioned (1) to (5) again. Two weeks from the secondary immunization, the whole blood and spleen were extracted under anesthesia, and the obtained serum sample was measured for anti OVA-specific IgG1 subclass antibody. A method for measurement of the anti OVA-specific IgG1 subclass antibody in Example 1, and the following Examples 2, 4, 7 to 10 and 13 to 16 is as follows.\nTo a 96 well plate was added 5 μg/ml OVA at 100 μl/well, and the mixture was incubated at 4° C. overnight. After incubation, the mixture was washed three times with 200 μl of PBS-T (PBS (phosphate buffered saline)+0.05% (v/v) Tween 20) per well, and blocked with 100 μl of 5% FCS (fatal calf serum)/PBS solution per well at room temperature for 1 to 2 hr. Thereafter, the mixture was washed three times with PBS-T (200 μl/well), a diluted serum sample (100 μl/well) or the same amount of 5% FCS/PBS solution as a control was added, and the mixture was incubated at 37° C. for 1 hr. Thereafter, the mixture was washed five times with PBS-T (200 μl/well), a diluted biotinylated anti-mouse IgG1 antibody (100 μl/well) was added, and the mixture was incubated at 37° C. for 45 min. Thereafter, the mixture was washed five times with PBS-T (200 μl/well), a diluted anti-biotin-HRP antibody was added (100 μl/well), and the mixture was incubated at 37° C. for another 30 min. Thereafter, the mixture was washed five times with PBS-T (200 μl/well), TMB substrate solution was added (100 μl/well), and the mixture was incubated at room temperature for 10 to 15 min. Thereafter, a reaction quenching liquid (2N sulfuric acid solution) was added (50 μl/well) to discontinue a color developing reaction, and the absorbance (OD Value=450 nm) was measured by a microplate reader.\nOne week later, the secondary immunization was carried out by dorsal-subcutaneous administration of solutions similar to those of the above-mentioned (1) to (6) again. Two weeks from the secondary immunization, the whole blood and spleen were extracted under anesthesia, and the obtained serum sample was measured for anti OVA-specific IgG1 subclass antibody.\n8-Week-old female BALB/c mice were divided into groups (N=6), and each group was primarily immunized by dorsal-subcutaneous administration of (1) ovalbumin (OVA) ([…] administration group), (2) OVA (10 μg) and, as an adjuvant, N,N′-bis(2-heptylundecanoyl)-L-cystine dimethyl ester (SZ23) ([…]), (3) OVA (10 μg) and N,N′-bis(dodecanoyl)-L-cystine dimethyl ester (SZ24) ([…]), and (4) saline (saline single administration group), each per mouse. One week later, the secondary immunization was carried out by dorsal-subcutaneous administration of solutions similar to those of the above-mentioned (1) to (4) again. Two weeks from the secondary immunization, the whole blood was extracted under anesthesia, and the obtained serum sample was measured for anti OVA-specific IgG1 subclass antibody. SZ24 is disclosed in JP-A-4-230359, which is incorporated herein by reference in its entirety.\n8-Week-old female BALB/c mice were divided into groups (N=6), and each group was primarily immunized by dorsal-subcutaneous administration of (1) ovalbumin (OVA) ([…] administration group), (2) OVA (10 μg) and, as an adjuvant, N,N′-bis(2-tetradecylhexadecanoyl)-L-cystine dimethyl ester (SZ37) (0.256 μmol) added to saline, (3) OVA (10 μg) and N,N′-bis(2-octadecyleicosanoyl)-L-cystine dimethyl ester (SZ38) (0.256 μmol) added to saline, (4) OVA (10 μg) and SZ37 (0.256 μmol) dissolved or dispersed in 5% αCD-added saline, and (5) OVA (10 μg) and SZ38 (0.256 μmol) dissolved or dispersed in 5% αCD-added saline, each per mouse. One week later, the secondary immunization was carried out by dorsal-subcutaneous administration of solutions or dispersions similar to those of the above-mentioned (1) to (5) again. […]"}, "[2]": {"assay": "Dispersibility investigation test (turbidity, OD 650 nm; photograph)", "type": "physicochemical", "conditions": "for dispersion in 5% αCD-added saline (photograph) / dispersion in saline (photograph): after stirring; for dispersion in saline (photograph): 0.256 μmol in 1 mL saline", "procedure": "N,N′-bis(2-tetradecylhexadecanoyl)-L-cystine dimethyl ester (SZ37) and N,N′-bis(2-octadecyleicosanoyl)-L-cystine dimethyl ester (SZ38) (0.256 μmol) were each dispensed to a 2 mL tube containing zirconia beads, saline or 5% α-cyclodextrin (hereinafter to be also simply referred to as αCD)-added saline (1 mL) was added, and the mixture was stirred. The absorbance (OD Value=650 nm) was measured by a microplate reader, and the turbidity was calculated as an index of dispersibility. The measurement method of the turbidity is as follows.\nSZ37 and SZ38 (0.256 μmol) were each dispensed to a 2 mL tube containing zirconia beads, saline or 5% αCD-added saline (1 mL) was added, and the mixture was vigorously stirred three times under conditions of 3.15 seconds one time at 6000 rpm. The mixture was dispensed by 200 μL to a 96 well plate, and the absorbance (OD Value=650 nm) was measured by a microplate reader. As a control, kaolinite (1 mg) was dissolved in distilled water (1 L), and the absorbance (OD Value=650 nm) was measured by a microplate reader. The absorbance thereof (OD Value=650 nm) was defined to be turbidity: 1, and the turbidity of each sample was calculated from the ratio with the measured value of kaolinite.\nWhether the dispersion state varies depending on the dispersion solvent when SZ37 and SZ38 are dispersed was studied. In the same manner as in Example 10, SZ37 and SZ38 were added 1% β-cyclodextrin (hereinafter to be also referred to simply as βCD)-added saline or 5% αCD-added saline, and the mixture was stirred. The absorbance (OD Value=650 nm) was measured by a microplate reader, and the turbidity was calculated as an index of dispersibility. The measurement method of turbidity as in Example 11."}, "[3]": {"conditions": "2.56 μmol in saline with OVA 10 μg, primary + secondary immunization, serum two weeks after, compared to OVA single administration group"}, "[4]": {"conditions": "0.256 μmol dispersed in 5% αCD-added saline with OVA 10 μg, compared to control (OVA in 5% αCD-added saline)"}, "[5]": {"conditions": "0.256 μmol dispersed in 5% αCD-added saline with OVA 10 μg, compared to OVA single administration group (OVA in saline)"}, "[6]": {"conditions": "0.256 μmol in saline with OVA 10 μg, compared to OVA single administration group"}, "[7]": {"conditions": "0.256 μmol in 1 mL 5% αCD-added saline"}, "[8]": {"conditions": "0.256 μmol in 1 mL 5% αCD-added saline, compared to dispersion in saline"}, "[9]": {"conditions": "5% αCD-added saline, compared to dispersion in 1% βCD-added saline"}},
  "data": [
    {"compound": "COC(=O)[C@@H](N)CSSC[C@H](N)C(=O)OC", "note": "[(CyssOMe)2, cystine dimethyl ester, reference compound]", "values": [
      {"measurement": "production of anti OVA-specific IgG1 subclass antibody", "setting": "[1]; [3]", "result": "did not show a significant difference"}
    ]},
    {"compound": "COC(=O)[C@H](CSSC[C@H](NC(=O)C(CCC(C)CC(C)(C)C)C(C)CC(C)(C)C)C(=O)OC)NC(=O)C(CCC(C)CC(C)(C)C)C(C)CC(C)(C)C", "note": "(stereo partly drawn) [SZ23′, N,N′-bis[5,7,7-trimethyl-2-(1,3,3-trimethylbutyl)octanoyl]-L-cystine dimethyl ester]", "values": [
      {"measurement": "production of anti OVA-specific IgG1 subclass antibody", "setting": "[1]; [3]", "result": "significantly increased"}
    ]},
    {"compound": "CCCCCCCCCCCC(=O)N[C@@H](CSSC[C@H](NC(=O)CCCCCCCCCCC)C(=O)OC)C(=O)OC", "note": "[SZ24, N,N′-bis(dodecanoyl)-L-cystine dimethyl ester, reference compound]", "values": [
      {"measurement": "production of anti OVA-specific IgG1 subclass antibody", "setting": "[1]; [3]", "result": "did not show a significant difference"}
    ]},
    {"compound": "CCCCCCCCCCCCCCCC(=O)N[C@@H](CSSC[C@H](NC(=O)CCCCCCCCCCCCCCC)C(=O)OC)C(=O)OC", "note": "[SZ22, N,N′-bis(hexadecanoyl)-L-cystine dimethyl ester]", "values": [
      {"measurement": "production of anti OVA-specific IgG1 subclass antibody", "setting": "[1]; [4]", "result": "significantly increased"},
      {"measurement": "production of anti OVA-specific IgG1 subclass antibody", "setting": "[1]; [3]", "result": "significantly increased"}
    ]},
    {"compound": "CCCCCCCCCCCCCCCCCCCCCC(=O)N[C@@H](CSSC[C@H](NC(=O)CCCCCCCCCCCCCCCCCCCCC)C(=O)OC)C(=O)OC", "note": "[SZ66, N,N′-bis(docosanoyl)-L-cystine dimethyl ester]", "values": [
      {"measurement": "production of anti OVA-specific IgG1 subclass antibody", "setting": "[1]; [4]", "result": "significantly increased"}
    ]},
    {"compound": "CC(C)CCCCCCCCCCCCCCC(=O)O", "note": "[ISA, isostearic acid, reference compound]", "values": [
      {"measurement": "production of anti OVA-specific IgG1 subclass antibody", "setting": "[1]; 5.12 μmol in saline with OVA 10 μg, compared to OVA single administration group", "result": "did not show a significant difference"}
    ]},
    {"compound": "CCCCCCCCCCCCCCCCCCC(CCCCCCCCCCCCCCCCCC)C(=O)N[C@@H](CSSC[C@H](NC(=O)C(CCCCCCCCCCCCCCCCCC)CCCCCCCCCCCCCCCCCC)C(=O)OC)C(=O)OC", "note": "[SZ38, N,N′-bis(2-octadecyleicosanoyl)-L-cystine dimethyl ester]", "values": [
      {"measurement": "production of anti OVA-specific IgG1 subclass antibody", "setting": "[1]; [5]", "result": "significantly increased"},
      {"measurement": "production of anti OVA-specific IgG1 subclass antibody", "setting": "[1]; [6]", "result": "did not increase significantly"},
      {"measurement": "dispersion in 5% αCD-added saline (photograph)", "setting": "[2]; [7]", "result": "could be uniformly dispersed"},
      {"measurement": "turbidity (index of dispersibility)", "setting": "[2]; [8]", "result": "significantly higher"},
      {"measurement": "dispersion in saline (photograph)", "setting": "[2]", "result": "could not be dispersed"},
      {"measurement": "turbidity (index of dispersibility)", "setting": "[2]; [9]", "result": "significantly higher"}
    ]},
    {"compound": "CCCCCCCCCCCCC(=O)N[C@@H](CSSC[C@H](NC(=O)CCCCCCCCCCCC)C(=O)OC)C(=O)OC", "note": "[SZ34, N,N′-bis(tridecanoyl)-L-cystine dimethyl ester]", "values": [
      {"measurement": "production of anti OVA-specific IgG1 subclass antibody", "setting": "[1]; [4]", "result": "significantly increased"},
      {"measurement": "production of anti OVA-specific IgG1 subclass antibody", "setting": "[1]; [3]", "result": "significantly increased"}
    ]},
    {"compound": "CCCCCCCCCCCCCCC(CCCCCCCCCCCCCC)C(=O)N[C@@H](CSSC[C@H](NC(=O)C(CCCCCCCCCCCCCC)CCCCCCCCCCCCCC)C(=O)OC)C(=O)OC", "note": "[SZ37, N,N′-bis(2-tetradecylhexadecanoyl)-L-cystine dimethyl ester]", "values": [
      {"measurement": "production of anti OVA-specific IgG1 subclass antibody", "setting": "[1]; [5]", "result": "significantly increased"},
      {"measurement": "production of anti OVA-specific IgG1 subclass antibody", "setting": "[1]; [6]", "result": "did not increase significantly"},
      {"measurement": "dispersion in 5% αCD-added saline (photograph)", "setting": "[2]; [7]", "result": "could be uniformly dispersed"},
      {"measurement": "turbidity (index of dispersibility)", "setting": "[2]; [8]", "result": "significantly higher"},
      {"measurement": "dispersion in saline (photograph)", "setting": "[2]", "result": "could not be dispersed"},
      {"measurement": "turbidity (index of dispersibility)", "setting": "[2]; [9]", "result": "significantly higher"}
    ]},
    {"compound": "CCCCC/C=C\\C/C=C\\CCCCCCCC(=O)N[C@@H](CSSC[C@H](NC(=O)CCCCCCC/C=C\\C/C=C\\CCCCC)C(=O)OC)C(=O)OC", "note": "[SZ28, N,N′-bis(linoleoyl)-L-cystine dimethyl ester, reference compound]", "values": [
      {"measurement": "production of anti OVA-specific IgG1 subclass antibody", "setting": "[1]; [3]", "result": "did not increase significantly"}
    ]},
    {"compound": "CCCCCCCCCCCCCCCCCCCCCCCCCCCCCC(=O)N[C@@H](CSSC[C@H](NC(=O)CCCCCCCCCCCCCCCCCCCCCCCCCCCCC)C(=O)OC)C(=O)OC", "note": "[SZ36, N,N′-bis(triacontanoyl)-L-cystine dimethyl ester]", "values": [
      {"measurement": "production of anti OVA-specific IgG1 subclass antibody", "setting": "[1]; [4]", "result": "significantly increased"},
      {"measurement": "production of anti OVA-specific IgG1 subclass antibody", "setting": "[1]; [3]", "result": "significantly increased"}
    ]}
  ]
}
